Tested on: 941728-121-R-J1-PDC complex spheroid viability
Assay: Anticancer human tumor 941728-121-R-J1-PDC patient-derived lung adenocarcinoma cell line growth inhibition [RAS]
Details: for IC50: curve of first compound; for viability, T/C: stronger effect = lower value; active means viability on the fitted dose curve at most 10% of control; inactive means the rest
Method in brief: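 Tumour cells grown as complex spheroids with HUVEC endothelial cells and mesenchymal stem cells, treated with RAS pathway inhibitor combinations. Each agent spans half-log steps from near clinical Cmax, or 10 microM where Cmax is unknown.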
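Further: spheroids exposed to compounds for 7 days before readout.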
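Wherever viability, T/C is given: 100% = DMSO vehicle control viability.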

CCc1c2c(nc3ccc(O)cc13)-c1cc3c(c(=O)n1C2)COC(=O)[C@]3(O)CC + C#Cc1c(F)ccc2cc(O)cc(-c3ncc4c(N5CC6CCC(C5)N6)nc(OCC56CCCN5CC(F)C6)nc4c3F)c12
12.2 nM: IC50 (second compound 0.1 µM)
26.2 nM: IC50 (second compound 0.0316 µM)
inactive: viability, T/C (second compound 0.0316 µM, first compound 0.000949 µM) 77.8% | viability, T/C (second compound 0.0316 µM, first compound 0.003 µM) 61.1% | viability, T/C (second compound 0.0316 µM, first compound 0.00949 µM) 54.1% | viability, T/C (second compound 0.0316 µM, first compound 0.03 µM) 49.8% | viability, T/C (second compound 0.0316 µM, first compound 0.0949 µM) 51.6% | viability, T/C (second compound 0.0316 µM, first compound 0.3 µM) 40.5% | viability, T/C (second compound 0.1 µM, first compound 0.000949 µM) 69.4% | viability, T/C (second compound 0.1 µM, first compound 0.003 µM) 58.8% | viability, T/C (second compound 0.1 µM, first compound 0.00949 µM) 45% | viability, T/C (second compound 0.1 µM, first compound 0.03 µM) 53.6% | viability, T/C (second compound 0.1 µM, first compound 0.0949 µM) 48.4% | viability, T/C (second compound 0.1 µM, first compound 0.3 µM) 39.9% | viability, T/C (second compound 0.316 µM, first compound 0.000949 µM) 52.9% | viability, T/C (second compound 0.316 µM, first compound 0.003 µM) 42.4% | viability, T/C (second compound 0.316 µM, first compound 0.00949 µM) 42.5% | viability, T/C (second compound 0.316 µM, first compound 0.03 µM) 42.6% | viability, T/C (second compound 0.316 µM, first compound 0.0949 µM) 44.7% | viability, T/C (second compound 0.316 µM, first compound 0.3 µM) 34.6% | viability, T/C (second compound 1 µM, first compound 0.000949 µM) 34.8% | viability, T/C (second compound 1 µM, first compound 0.003 µM) 37.9% | viability, T/C (second compound 1 µM, first compound 0.00949 µM) 30.6% | viability, T/C (second compound 1 µM, first compound 0.03 µM) 31.8% | viability, T/C (second compound 1 µM, first compound 0.0949 µM) 32.4% | viability, T/C (second compound 1 µM, first compound 0.3 µM) 29% | viability, T/C (second compound 3.16 µM, first compound 0.000949 µM) 25.6% | viability, T/C (second compound 3.16 µM, first compound 0.003 µM) 26.1% | viability, T/C (second compound 3.16 µM, first compound 0.00949 µM) 26.7% | viability, T/C (second compound 3.16 µM, first compound 0.03 µM) 23.5% | viability, T/C (second compound 3.16 µM, first compound 0.0949 µM) 21.4% | viability, T/C (second compound 3.16 µM, first compound 0.3 µM) 19% | viability, T/C (second compound 10 µM, first compound 0.000949 µM) 21.9% | viability, T/C (second compound 10 µM, first compound 0.003 µM) 18.5% | viability, T/C (second compound 10 µM, first compound 0.00949 µM) 18.6% | viability, T/C (second compound 10 µM, first compound 0.03 µM) 14.8% | viability, T/C (second compound 10 µM, first compound 0.0949 µM) 13.3%
active: viability, T/C (second compound 10 µM, first compound 0.3 µM) 8.73%
< 0.949 nM: IC50 (second compound 0.316 µM) | IC50 (second compound 1 µM) | IC50 (second compound 3.16 µM) | IC50 (second compound 10 µM)
